# Experimental data reported in PubChem BioAssay (NCI).
#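 Exposure lasted 48 hours, with cells grown in 96-well plates and compounds tested at five concentrations. GI50 marks 50% less growth. Definition used: TGI = concentration required for complete inhibition of growth.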
# Tests used:
# Experiment in all cases: DTP human tumour cell line panel, 48 h
# 786-0 renal = tested on: 786-0 renal
# A498 renal = tested on: A498 renal
# A549 NSCLC = tested on: A549 NSCLC
# ACHN renal = tested on: ACHN renal
# BT-549 breast = tested on: BT-549 breast
# CAKI-1 renal = tested on: CAKI-1 renal
# CCRF-CEM leukemia = tested on: CCRF-CEM leukemia
# COLO 205 colon = tested on: COLO 205 colon
# DU-145 prostate = tested on: DU-145 prostate
# EKVX NSCLC = tested on: EKVX NSCLC
# HCC-2998 colon = tested on: HCC-2998 colon
# HCT-116 colon = tested on: HCT-116 colon
# HCT-15 colon = tested on: HCT-15 colon
# HL-60(TB) leukemia = tested on: HL-60(TB) leukemia
# HOP-62 NSCLC = tested on: HOP-62 NSCLC
# HOP-92 NSCLC = tested on: HOP-92 NSCLC
# HS 578T breast = tested on: HS 578T breast
# HT29 colon = tested on: HT29 colon
# IGROV1 ovarian = tested on: IGROV1 ovarian
# K-562 leukemia = tested on: K-562 leukemia
# KM12 colon = tested on: KM12 colon
# LOX IMVI melanoma = tested on: LOX IMVI melanoma
# MALME-3M melanoma = tested on: MALME-3M melanoma
# MCF7 breast = tested on: MCF7 breast
# MDA-MB-231 breast = tested on: MDA-MB-231 breast
# MDA-MB-435 = tested on: MDA-MB-435
# MDA-N = tested on: MDA-N
# MOLT-4 leukemia = tested on: MOLT-4 leukemia
# NCI-H226 lung = tested on: NCI-H226 lung
# NCI-H23 lung = tested on: NCI-H23 lung
# NCI-H460 lung = tested on: NCI-H460 lung
# NCI-H522 lung = tested on: NCI-H522 lung
# NCI/ADR-RES ovarian = tested on: NCI/ADR-RES ovarian
# OVCAR-3 ovarian = tested on: OVCAR-3 ovarian
# OVCAR-4 ovarian = tested on: OVCAR-4 ovarian
# OVCAR-5 ovarian = tested on: OVCAR-5 ovarian
# OVCAR-8 ovarian = tested on: OVCAR-8 ovarian
# PC-3 prostate = tested on: PC-3 prostate
# RPMI-8226 leukemia = tested on: RPMI-8226 leukemia
# SF-268 CNS = tested on: SF-268 CNS
# SF-295 CNS = tested on: SF-295 CNS
# SF-539 CNS = tested on: SF-539 CNS
# SK-MEL-2 melanoma = tested on: SK-MEL-2 melanoma
# SK-MEL-28 melanoma = tested on: SK-MEL-28 melanoma
# SK-MEL-5 melanoma = tested on: SK-MEL-5 melanoma
# SK-OV-3 ovarian = tested on: SK-OV-3 ovarian
# SN12C renal = tested on: SN12C renal
# SNB-19 CNS = tested on: SNB-19 CNS
# SNB-75 CNS = tested on: SNB-75 CNS
# SR leukemia = tested on: SR leukemia
# SW-620 colon = tested on: SW-620 colon
# T-47D breast = tested on: T-47D breast
# TK-10 renal = tested on: TK-10 renal
# U251 CNS = tested on: U251 CNS
# UACC-257 melanoma = tested on: UACC-257 melanoma
# UACC-62 melanoma = tested on: UACC-62 melanoma
# UO-31 renal = tested on: UO-31 renal
# M14 melanoma = tested on: M14 melanoma
# RXF 393 renal = tested on: RXF 393 renal
smiles,measurement,setting,value
COc1ccc(NC(=S)N/N=C(\C)c2nc3ncccc3[nH]2)cc1,TGI,786-0 renal,> 100 µM
same,TGI,A498 renal,98.2 µM
same,TGI,A549 NSCLC,> 100 µM
same,TGI,ACHN renal,> 100 µM
same,TGI,BT-549 breast,42.3 µM
same,TGI,CAKI-1 renal,> 100 µM
same,TGI,CCRF-CEM leukemia,24.5 µM
same,TGI,COLO 205 colon,> 100 µM
same,TGI,DU-145 prostate,> 100 µM
same,TGI,EKVX NSCLC,> 100 µM
same,TGI,HCC-2998 colon,> 100 µM
same,TGI,HCT-116 colon,24.8 µM
same,TGI,HCT-15 colon,> 100 µM
same,TGI,HL-60(TB) leukemia,65.8 µM
same,TGI,HOP-62 NSCLC,59.3 µM
same,TGI,HOP-92 NSCLC,37.7 µM
same,TGI,HS 578T breast,> 100 µM
same,TGI,HT29 colon,> 100 µM
same,TGI,IGROV1 ovarian,53.6 µM
same,TGI,K-562 leukemia,> 100 µM
same,TGI,KM12 colon,> 100 µM
same,TGI,LOX IMVI melanoma,28.7 µM
same,TGI,MALME-3M melanoma,> 100 µM
same,TGI,MCF7 breast,21.6 µM
same,TGI,MDA-MB-231 breast,> 100 µM
same,TGI,MDA-MB-435,> 100 µM
same,TGI,MDA-N,> 100 µM
same,TGI,MOLT-4 leukemia,43.9 µM
same,TGI,NCI-H226 lung,21.7 µM
same,TGI,NCI-H23 lung,> 100 µM
same,TGI,NCI-H460 lung,37.9 µM
same,TGI,NCI-H522 lung,37.5 µM
same,TGI,NCI/ADR-RES ovarian,> 100 µM
same,TGI,OVCAR-3 ovarian,6.9 µM
same,TGI,OVCAR-4 ovarian,> 100 µM
same,TGI,OVCAR-5 ovarian,> 100 µM
same,TGI,OVCAR-8 ovarian,63.3 µM
same,TGI,PC-3 prostate,45.2 µM
same,TGI,RPMI-8226 leukemia,> 100 µM
same,TGI,SF-268 CNS,> 100 µM
same,TGI,SF-295 CNS,> 100 µM
same,TGI,SF-539 CNS,13.7 µM
same,TGI,SK-MEL-2 melanoma,> 100 µM
same,TGI,SK-MEL-28 melanoma,> 100 µM
same,TGI,SK-MEL-5 melanoma,29.1 µM
same,TGI,SK-OV-3 ovarian,> 100 µM
same,TGI,SN12C renal,> 100 µM
same,TGI,SNB-19 CNS,> 100 µM
same,TGI,SNB-75 CNS,70.6 µM
same,TGI,SR leukemia,> 100 µM
same,TGI,SW-620 colon,> 100 µM
same,TGI,T-47D breast,92.4 µM
same,TGI,TK-10 renal,21.1 µM
same,TGI,U251 CNS,> 100 µM
same,TGI,UACC-257 melanoma,> 100 µM
same,TGI,UACC-62 melanoma,73.2 µM
same,TGI,UO-31 renal,12 µM
COc1ccc(CNc2nc3cc(N)cc(N)c3nc2-c2ccccc2)cc1,GI50,786-0 renal,15.1 µM
same,TGI,786-0 renal,41.4 µM
same,GI50,A498 renal,> 100 µM
same,TGI,A498 renal,> 100 µM
same,GI50,A549 NSCLC,21.5 µM
same,TGI,A549 NSCLC,59.8 µM
same,GI50,ACHN renal,14.9 µM
same,TGI,ACHN renal,33.6 µM
same,GI50,BT-549 breast,6.52 µM
same,TGI,BT-549 breast,30.7 µM
same,GI50,CAKI-1 renal,16.3 µM
same,TGI,CAKI-1 renal,35.9 µM
same,GI50,CCRF-CEM leukemia,3.36 µM
same,TGI,CCRF-CEM leukemia,65.3 µM
same,GI50,COLO 205 colon,15.5 µM
same,TGI,COLO 205 colon,34.1 µM
same,GI50,DU-145 prostate,21.7 µM
same,TGI,DU-145 prostate,58 µM
same,GI50,EKVX NSCLC,14.9 µM
same,TGI,EKVX NSCLC,28.2 µM
same,GI50,HCC-2998 colon,21.8 µM
same,TGI,HCC-2998 colon,51.7 µM
same,GI50,HCT-116 colon,14.4 µM
same,TGI,HCT-116 colon,27.5 µM
same,GI50,HCT-15 colon,15.9 µM
same,TGI,HCT-15 colon,34.5 µM
same,GI50,HL-60(TB) leukemia,13.6 µM
same,TGI,HL-60(TB) leukemia,51.3 µM
same,GI50,HOP-62 NSCLC,17.2 µM
same,TGI,HOP-62 NSCLC,34.3 µM
same,GI50,HOP-92 NSCLC,13 µM
same,TGI,HOP-92 NSCLC,37.2 µM
same,GI50,HS 578T breast,26.9 µM
same,TGI,HS 578T breast,> 100 µM
same,GI50,HT29 colon,24.5 µM
same,TGI,HT29 colon,60.2 µM
same,GI50,IGROV1 ovarian,12.9 µM
same,TGI,IGROV1 ovarian,27.1 µM
same,GI50,K-562 leukemia,25.4 µM
same,TGI,K-562 leukemia,97.1 µM
same,GI50,KM12 colon,13.3 µM
same,TGI,KM12 colon,26.1 µM
same,GI50,LOX IMVI melanoma,13.6 µM
same,TGI,LOX IMVI melanoma,27.4 µM
same,GI50,M14 melanoma,18.1 µM
same,TGI,M14 melanoma,32.2 µM
same,GI50,MALME-3M melanoma,10.7 µM
same,TGI,MALME-3M melanoma,22.5 µM
same,GI50,MCF7 breast,13.2 µM
same,TGI,MCF7 breast,26.5 µM
same,GI50,MDA-MB-231 breast,2.9 µM
same,TGI,MDA-MB-231 breast,13.8 µM
same,GI50,MDA-MB-435,10.1 µM
same,TGI,MDA-MB-435,21.7 µM
same,GI50,MDA-N,14.2 µM
same,TGI,MDA-N,27.7 µM
same,GI50,NCI-H226 lung,20.2 µM
same,TGI,NCI-H226 lung,70.5 µM
same,GI50,NCI-H23 lung,16.8 µM
same,TGI,NCI-H23 lung,34.4 µM
same,GI50,NCI-H460 lung,20.5 µM
same,TGI,NCI-H460 lung,48.4 µM
same,GI50,NCI-H522 lung,10 µM
same,TGI,NCI-H522 lung,22 µM
same,GI50,NCI/ADR-RES ovarian,22.7 µM
same,TGI,NCI/ADR-RES ovarian,83.3 µM
same,GI50,OVCAR-3 ovarian,2.23 µM
same,TGI,OVCAR-3 ovarian,7.77 µM
same,GI50,OVCAR-4 ovarian,8.12 µM
same,TGI,OVCAR-4 ovarian,21.3 µM
same,GI50,OVCAR-5 ovarian,20.8 µM
same,TGI,OVCAR-5 ovarian,46.2 µM
same,GI50,OVCAR-8 ovarian,14.8 µM
same,TGI,OVCAR-8 ovarian,39.5 µM
same,GI50,PC-3 prostate,10.3 µM
same,TGI,PC-3 prostate,27.3 µM
same,TGI,RPMI-8226 leukemia,15.9 µM
same,GI50,RXF 393 renal,5.32 µM
same,TGI,RXF 393 renal,18.4 µM
same,GI50,SF-268 CNS,9.79 µM
same,TGI,SF-268 CNS,22 µM
same,GI50,SF-295 CNS,17.8 µM
same,TGI,SF-295 CNS,32.4 µM
same,GI50,SK-MEL-2 melanoma,14.7 µM
same,TGI,SK-MEL-2 melanoma,29.1 µM
same,GI50,SK-MEL-28 melanoma,17.3 µM
same,TGI,SK-MEL-28 melanoma,32.3 µM
same,GI50,SK-MEL-5 melanoma,17.6 µM
same,TGI,SK-MEL-5 melanoma,31.4 µM
same,GI50,SN12C renal,16.8 µM
same,TGI,SN12C renal,34.3 µM
same,GI50,SNB-19 CNS,41.5 µM
same,TGI,SNB-19 CNS,> 100 µM
same,GI50,SR leukemia,4.09 µM
same,TGI,SR leukemia,> 100 µM
same,GI50,SW-620 colon,12.8 µM
same,TGI,SW-620 colon,30 µM
same,GI50,T-47D breast,2.8 µM
same,TGI,T-47D breast,11 µM
same,GI50,TK-10 renal,28.1 µM
same,TGI,TK-10 renal,57.8 µM
same,GI50,U251 CNS,13.6 µM
same,TGI,U251 CNS,26.5 µM
same,GI50,UACC-257 melanoma,16.3 µM
same,TGI,UACC-257 melanoma,30.4 µM
same,GI50,UACC-62 melanoma,14.9 µM
same,TGI,UACC-62 melanoma,29.8 µM
same,GI50,UO-31 renal,11.4 µM
same,TGI,UO-31 renal,28.7 µM
